Literature values as cited in US20250387420A1, “Prevention of Nausea and Vomiting from Antibody-Drug Conjugates and other Long-Acting Emetogenics” (Helsinn Healthcare SA, priority 2024, published 2025).

Legend:
NK1 receptor = NK1 receptor (Homo sapiens, UniProt P25103)
[1] = 48 hours after a single 300 mg oral netupitant dose; Gilmore and Bernareggi 2019
[2] = system: patients receiving cisplatin-based chemotherapy; conditions: 168 hours following highly emetogenic cisplatin-based therapy

Sequence of NK1 receptor (P25103 whole entry): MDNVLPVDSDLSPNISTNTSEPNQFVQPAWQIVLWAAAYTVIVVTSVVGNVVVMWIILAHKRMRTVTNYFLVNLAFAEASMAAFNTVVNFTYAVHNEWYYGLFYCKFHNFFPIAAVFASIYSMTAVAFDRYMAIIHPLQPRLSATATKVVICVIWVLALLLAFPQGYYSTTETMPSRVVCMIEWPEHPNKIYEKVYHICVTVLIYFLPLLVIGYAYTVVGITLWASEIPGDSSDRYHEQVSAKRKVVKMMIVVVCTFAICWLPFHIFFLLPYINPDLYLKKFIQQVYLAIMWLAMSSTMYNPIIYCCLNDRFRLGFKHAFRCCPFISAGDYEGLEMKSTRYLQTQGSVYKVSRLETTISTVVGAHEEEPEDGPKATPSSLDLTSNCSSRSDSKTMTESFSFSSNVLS

Structure (SMILES)	NK1 receptor occupancy rates necessary for efficacy (NK1 receptor; Bergstrom et al. 2004) [%]	plasma concentration [1]	plasma concentration at which 90% receptor occupancy is achieved (NK1 receptor; Spinelli et al. 2013) [ng/mL]	comparative efficacy versus aprepitant [2]
C[C@@H](O[C@H]1OCCN(Cc2n[nH]c(=O)[nH]2)[C@H]1c1ccc(F)cc1)c1cc(C(F)(F)F)cc(C(F)(F)F)c1 [aprepitant]	> 90			
Cc1ccccc1-c1cc(N2CCN(C)CC2)ncc1N(C)C(=O)C(C)(C)c1cc(C(F)(F)F)cc(C(F)(F)F)c1 [netupitant]		below 100 ng/mL	225	favorable comparative efficacy to aprepitant
